How the values were obtained:
HeLa cells [1] = test: Ca^2+-imaging of living cells; assay type: cell-based
Description: Ca^2+-imaging of living cells was carried out using CaTM-3-AM. In order to study the utility thereof, a comparison was made with CaTM-2-AM(N-[2-[(acetyloxy)]-2-oxoethyl]amino]-N-[2-[2-[2-[bis[2-[(acetyloxy)methoxy]-2-oxoethyl]amino]-5-[[4-(1,8-dichloro-2,9-dihydro-7-hydroxy-9,9-dimethyl-2-oxo-9-silaanthracen-10-yl)-3-methylbenzoyl]amino]phenoxy]ethoxy]phenyl]-glycine(acetyloxy)methyl ester), which has a methyl group at position 2 of the benzene ring instead of a carboxy group. HeLa cells were incubated for 30 minutes at 37° C. together with 3 μM of CaTM-2-AM or CaTM-3-AM in a Hank's balanced salt solution (HBSS) containing 0.03% DMSO. The cells were washed three times using HBSS, then HBSS was added and the cells were observed using a confocal microscope SP5 (Leica) with an excitation wavelength of 590 nm and a fluorescence wavelength of 610 to 680 nm.
Ca^2+ imaging was carried out during stimulation by histamine and ionomycin using cells to which CaTM-3-AM had been added. Histamine hydrochloride (1 μM) was added after 1 minute from the beginning of observation, and ionomycin (5 μM) was added after 4 minutes from the beginning of observation.

physchem = assay type: physicochemical
Description: (§1) The optical characteristics, absorbance spectra, and fluorescence spectra of the resulting ZnTM-1 depending on pHs are shown in FIG. 1. The pH-induced changes were measured using ZnTM-1 (1 μM) in a buffer of 0.1M sodium phosphate containing 15% DMSO. pKa was determined by biphasic fitting using the absorbance at the absorbance maximum wavelength. EDTA (100 μM) was added in order to eliminate the effect of trace metal ions during the measurement of quantum yield when Zn^2+ had not been added, and then measurement was carried out.

[2] = Optical characteristics, Zn^2+ addition experiment; assay type: physicochemical; settings: for Φf1: fluorescence quantum yield
Description: as §1, with “Zn^2+ addition experiment was carried out by adding ZnSO4 to a solution obtained by adding” for “pH-induced changes were measured using”, “HEPES (pH 7.4)” for “sodium phosphate”

HeLa cells [3] = test: Cell imaging using ZnTM-1; assay type: cell-based; settings: 10 μM, 30 min at 37° C., HBSS 1% DMSO, ZnSO4 (50 μM)/pyrithione (5 μM), then TPEN (100 μM)
Description: Cell imaging was carried out using ZnTM-1. HeLa cells were incubated for 30 minutes at 37° C. together with 10 μM of ZnTM-1 in a Hank's balanced salt solution (HBSS) containing 1% DMSO. The mixture was washed once using HBSS, then HBSS was added and the cells were observed using an epifluorescence microscope IX-71 (Olympus) with an excitation wavelength of 565 to 585 nm and a fluorescence wavelength of 600 to 690 nm. The observation was carried out in every 30 seconds, ZnSO4 (50 μM) and pyrithione (5 μM), which is an ionophore, were added after 2 minutes and 30 seconds from the beginning of observation, and TPEN (100 μM), which is a cell-membrane-permeating zinc chelator, was added after 6 minutes from the beginning of observation.

[4] = ZnTM-1 1 μM, 0.1M HEPES (pH 7.4) containing 15% DMSO, Zn^2+ not added

SMILES | Brightness of fluorescence image (HeLa cells [1]; HeLa cells, 3 μM, 30 min at 37° C., HBSS 0.03% DMSO, excitation 590 nm, fluorescence 610 to 680 nm) | Quantity of fluorescent probe taken into cells (HeLa cells [1]; HeLa cells, 3 μM, 30 min at 37° C., compared with CaTM-2-AM) | Detection of variation in intracellular Ca^2+ during stimulation (HeLa cells [1]; histamine hydrochloride (1 μM) after 1 minute, ionomycin (5 μM) after 4 minutes) | pKa (physchem) | λabs (nm) [2, 4] [nm] | λf1 (nm) [2, 4] [nm] | Φf1 ([2]; + 10 eq Zn^2+ (ZnSO4), 0.1M HEPES (pH 7.4) containing 15% DMSO) | Φf1 ([2]; Zn^2+ not added, EDTA (100 μM) added) | Cell uptake and function as Zn^2+-detecting fluorescent probe (HeLa cells [3])
CC(=O)OCOC(=O)CN(CC(=O)OCOC(C)=O)c1ccccc1OCCOc1cc(NC(=O)c2ccc(C3=C4C=CC(=O)C(Cl)=C4[Si](C)(C)c4c3ccc(O)c4Cl)c(C(=O)O)c2)ccc1N(CC(=O)OCOC(C)=O)CC(=O)OCOC(C)=O [CaTM-3-AM, 5-[[[4-[bis[2-[(acetyloxy)methoxy]-2-oxoethyl]amino]-5-[2-[2-[bis[2-[(acetyloxy)methoxy]-2-oxoethyl]amino]phenoxy]ethoxy]-phenyl]amino]carbonyl]-2-(1,8-dichloro-2,9-dihydro-7-hydroxy-9,9-dimethyl-2-oxo-9-silaanthracen-10-yl)-benzoic acid] | brighter fluorescence image than does CaTM-2-AM | a larger quantity of fluorescent probes is taken into cells | can be accurately ascertained |  |  |  |  |  | 
C[Si]1(C)C2=C(F)C(=O)C=CC2=C(c2ccc(C(=O)Nc3ccc(NCCN(Cc4ccccn4)Cc4ccccn4)cc3)cc2C(=O)O)c2ccc(O)c(F)c21 [ZnTM-1, 5-[[[4-[[2-[bis(2-pyridinylmethyl)amino]ethyl]amino]phenyl]amino]carbonyl]-2-(1,8-difluoro-2,9-dihydro-7-hydroxy-9,9-dimethyl-2-oxo-9-silaanthracen-10-yl)benzoic acid] |  |  |  | 7.2 | 589 | 601 | 0.281 | 0.062 | is taken into the cell and functions effectively as a Zn^2+-detecting fluorescent probe
